Measured values as given in ChEMBL document CHEMBL1151638, “Hippamine, a Minor Alkaloid From Sternbergia lutea” (1984).

System: Solanum tuberosum
Assay: Inhibition of ascorbic acid biosynthesis in potato tuber at 20 uM
Type: functional

O[C@H]1[C@H]2c3cc4c(cc3CN3CCC(=C[C@@H]1O)[C@H]23)OCO4 [LYCORINE]
inhibition at 20 µM: 80%

CO[C@H]1C=C2CCN3Cc4cc5c(cc4[C@H]([C@@H]1O)[C@@H]23)OCO5 [HIPPPAMINE]
inhibition at 20 µM: 58%
